# The source made the active and inactive calls. No cut-off for these calls is given here.
# What was measured:
# [1] = Inhibition beta lactamase PDC-1 in Pseudomonas aeruginosa PAO1 using nitrocefin as substrate measured by 96 well microtitre plate
# [2] = system: Pseudomonas aeruginosa PAO1; assay: Inhibition of beta-lactamase activity in Pseudomonas aeruginosa PAO1 23/14-053 (ST-309) assessed as MIC for cefpodoxime antibacterial activity at 4 mg/L by broth microdilution method
# [3] = system: Pseudomonas aeruginosa PAO1; assay: Inhibition of beta-lactamase activity in Pseudomonas aeruginosa PAO1 deltadacB assessed as MIC for cefpodoxime antibacterial activity at 16 mg/L by broth microdilution method
# [4] = Inhibition beta lactamase PDC-1 in Pseudomonas aeruginosa PAO1 assessed as apparent inhibition constant using nitrocefin as substrate measured by 96 well microtitre plate; conditions: read-out: Ki(app)
# [5] = system: Pseudomonas aeruginosa PAO1; assay: Inhibition of beta-lactamase activity in Pseudomonas aeruginosa PAO1 deltaDdeltsDh2deltaDh3 assessed as MIC for cefpodoxime antibacterial activity at 16 mg/L by broth microdilution method
# [6] = system: Pseudomonas aeruginosa PAO1; assay: Inhibition of beta-lactamase activity in Pseudomonas aeruginosa PAO1 deltaC+pUCP-(PDC-1) assessed as MIC for cefpodoxime antibacterial activity at 16 mg/L by broth microdilution method
# [7] = system: Pseudomonas aeruginosa PAO1; assay: Inhibition of beta-lactamase activity in Pseudomonas aeruginosa PAO1 deltaDdeltsDh2deltaDh3 assessed as MIC for cefpodoxime antibacterial activity at 4 mg/L by broth microdilution method
# [8] = system: Pseudomonas aeruginosa PAO1; assay: Inhibition beta lactamase PDC-1 in Pseudomonas aeruginosa PAO1 assessed as ratio of kinact/K1 using nitrocefin as substrate measured by 96 well microtitre plate
# [9] = system: Pseudomonas aeruginosa PAO1; assay: Inhibition of beta-lactamase activity in Pseudomonas aeruginosa PAO1 assessed as MIC for cefpodoxime antibacterial activity at 4 mg/L by broth microdilution method
# [10] = system: Pseudomonas aeruginosa PAO1; assay: Inhibition of beta-lactamase activity in Pseudomonas aeruginosa PAO1 6/04-224 (ST-175) assessed as MIC for cefpodoxime antibacterial activity at 16 mg/L by broth microdilution method
# [11] = system: Pseudomonas aeruginosa PAO1; assay: Inhibition of beta-lactamase activity in Pseudomonas aeruginosa PAO1 deltadacBdeltadacC assessed as MIC for cefpodoxime antibacterial activity at 16 mg/L by broth microdilution method
# [12] = system: Pseudomonas aeruginosa PAO1; assay: Inhibition of beta-lactamase activity in Pseudomonas aeruginosa PAO1 PAHUAC-14 (ST-966) assessed as MIC for cefpodoxime antibacterial activity at 4 mg/L by broth microdilution method
# [13] = system: Pseudomonas aeruginosa PAO1; assay: Inhibition of beta-lactamase activity in Pseudomonas aeruginosa PAO1 deltaC assessed as MIC for cefpodoxime antibacterial activity at 4 mg/L by broth microdilution method
# [14] = system: Pseudomonas aeruginosa PAO1; assay: Inhibition of beta-lactamase activity in Pseudomonas aeruginosa PAO1 deltaC+pUCP-(PDC-1) assessed as MIC for cefpodoxime antibacterial activity at 4 mg/L by broth microdilution method
# [15] = system: Pseudomonas aeruginosa PAO1; assay: Inhibition of beta-lactamase activity in Pseudomonas aeruginosa PAO1 deltadacBdeltaampD assessed as MIC for cefpodoxime antibacterial activity at 16 mg/L by broth microdilution method
# [16] = system: Pseudomonas aeruginosa PAO1; assay: Inhibition of beta-lactamase activity in Pseudomonas aeruginosa PAO1 53/22-113 (ST-244) assessed as MIC for cefpodoxime antibacterial activity at 16 mg/L by broth microdilution method
# [17] = system: Pseudomonas aeruginosa PAO1; assay: Inhibition of beta-lactamase activity in Pseudomonas aeruginosa PAO1 17/14-017 (ST-235) assessed as MIC for cefpodoxime antibacterial activity at 4 mg/L by broth microdilution method
# [18] = system: Pseudomonas aeruginosa PAO1; assay: Inhibition beta lactamase PDC-1 in Pseudomonas aeruginosa PAO1 assessed as deacylation off-rate using nitrocefin as substrate at 30 mins measured by 96 well microtitre plate
# [19] = system: Pseudomonas aeruginosa PAO1; assay: Inhibition of beta lactamase PDC-1 in Pseudomonas aeruginosa PAO1 assessed as reduction in enzyme activity using nitrocefin as chromogenic substrate preincubated for 10 min using 96 well microtiter plate
# [20] = system: Pseudomonas aeruginosa PAO1; assay: Inhibition of beta-lactamase activity in Pseudomonas aeruginosa PAO1 PAHUAC-27(ST-22) assessed as MIC for cefpodoxime antibacterial activity at 16 mg/L by broth microdilution method
# [21] = system: Pseudomonas aeruginosa PAO1; assay: Inhibition beta lactamase PDC-1 in Pseudomonas aeruginosa PAO1 assessed as maximum rate of inactivation using nitrocefin as substrate measured by 96 well microtitre plate
# [22] = system: Pseudomonas aeruginosa PAO1; assay: Inhibition of beta-lactamase activity in Pseudomonas aeruginosa PAO1 deltaC+pUCP-(PDC-5) assessed as MIC for cefpodoxime antibacterial activity at 16 mg/L by broth microdilution method
# [23] = system: Pseudomonas aeruginosa PAO1; assay: Inhibition of beta-lactamase activity in Pseudomonas aeruginosa PAO1 deltaC+pUCP-(PDC-5) assessed as MIC for cefpodoxime antibacterial activity at 4 mg/L by broth microdilution method
# [24] = system: Pseudomonas aeruginosa PAO1; assay: Inhibition of beta-lactamase activity in Pseudomonas aeruginosa PAO1 deltadacB assessed as MIC for cefpodoxime antibacterial activity at 4 mg/L by broth microdilution method
# [25] = system: Pseudomonas aeruginosa PAO1; assay: Inhibition of beta-lactamase activity in Pseudomonas aeruginosa PAO1 deltaampD assessed as MIC for cefpodoxime antibacterial activity at 16 mg/L by broth microdilution method
# [26] = system: Pseudomonas aeruginosa PAO1; assay: Inhibition of beta-lactamase activity in Pseudomonas aeruginosa PAO1 deltaampD assessed as MIC for cefpodoxime antibacterial activity at 4 mg/L by broth microdilution method
# [27] = system: Pseudomonas aeruginosa PAO1; assay: Inhibition of beta-lactamase activity in Pseudomonas aeruginosa PAO1 PAHUAC-14 (ST-966) assessed as MIC for cefpodoxime antibacterial activity at 16 mg/L by broth microdilution method
# [28] = system: Pseudomonas aeruginosa PAO1; assay: Inhibition of beta-lactamase activity in Pseudomonas aeruginosa PAO1 23/14-053 (ST-309) assessed as MIC for cefpodoxime antibacterial activity at 16 mg/L by broth microdilution method
# Pseudomonas aeruginosa = assay: Inhibition of beta lactamase PDC-1 in Pseudomonas aeruginosa PAO1 for 30 min using MALDI TOF-MS analysis
# [29] = system: Pseudomonas aeruginosa PAO1; assay: Inhibition of beta-lactamase activity in Pseudomonas aeruginosa PAO1 6/04-224 (ST-175) assessed as MIC for cefpodoxime antibacterial activity at 4 mg/L by broth microdilution method
# [30] = system: Pseudomonas aeruginosa PAO1; assay: Inhibition of beta-lactamase activity in Pseudomonas aeruginosa PAO1 36/14-210 (ST-235) assessed as MIC for cefpodoxime antibacterial activity at 16 mg/L by broth microdilution method
# [31] = system: Pseudomonas aeruginosa PAO1; assay: Inhibition of beta-lactamase activity in Pseudomonas aeruginosa PAO1 deltadacBdeltadacC assessed as MIC for cefpodoxime antibacterial activity at 4 mg/L by broth microdilution method
# [32] = system: Pseudomonas aeruginosa PAO1; assay: Inhibition of beta-lactamase activity in Pseudomonas aeruginosa PAO1 17/14-017 (ST-235) assessed as MIC for cefpodoxime antibacterial activity at 16 mg/L by broth microdilution method
# [33] = system: Pseudomonas aeruginosa PAO1; assay: Inhibition of beta-lactamase activity in Pseudomonas aeruginosa PAO1 13/09-018 (ST-175) assessed as MIC for cefpodoxime antibacterial activity at 16 mg/L by broth microdilution method
# [34] = system: Pseudomonas aeruginosa PAO1; assay: Inhibition of beta-lactamase activity in Pseudomonas aeruginosa PAO1 deltadacBdeltapbpGdeltadacC assessed as MIC for cefpodoxime antibacterial activity at 4 mg/L by broth microdilution method
# [35] = system: Pseudomonas aeruginosa PAO1; assay: Inhibition of beta-lactamase activity in Pseudomonas aeruginosa PAO1 13/09-018 (ST-175) assessed as MIC for cefpodoxime antibacterial activity at 4 mg/L by broth microdilution method
# [36] = system: Pseudomonas aeruginosa PAO1; assay: Inhibition of beta-lactamase activity in Pseudomonas aeruginosa PAO1 deltadacBdeltaampD assessed as MIC for cefpodoxime antibacterial activity at 4 mg/L by broth microdilution method
# [37] = system: Pseudomonas aeruginosa PAO1; assay: Inhibition of beta-lactamase activity in Pseudomonas aeruginosa PAO1 deltaC assessed as MIC for cefpodoxime antibacterial activity at 16 mg/L by broth microdilution method
# [38] = system: Pseudomonas aeruginosa PAO1; assay: Inhibition of beta-lactamase activity in Pseudomonas aeruginosa PAO1 assessed as MIC for cefpodoxime antibacterial activity at 16 mg/L by broth microdilution method
# [39] = system: Pseudomonas aeruginosa PAO1; assay: Inhibition of beta-lactamase activity in Pseudomonas aeruginosa PAO1 53/22-113 (ST-244) assessed as MIC for cefpodoxime antibacterial activity at 4 mg/L by broth microdilution method
# [40] = system: Pseudomonas aeruginosa PAO1; assay: Inhibition of beta-lactamase activity in Pseudomonas aeruginosa PAO1 deltadacBdeltapbpGdeltadacC assessed as MIC for cefpodoxime antibacterial activity at 16 mg/L by broth microdilution method
# [41] = system: Pseudomonas aeruginosa PAO1; assay: Inhibition beta lactamase PDC-1 in Pseudomonas aeruginosa PAO1 assessed half life of nitrocefin substrate measured by 96 well microtitre plate assay
# [42] = system: Pseudomonas aeruginosa PAO1; assay: Inhibition of beta-lactamase activity in Pseudomonas aeruginosa PAO1 PAHUAC-27(ST-22) assessed as MIC for cefpodoxime antibacterial activity at 4 mg/L by broth microdilution method
# [43] = system: Pseudomonas aeruginosa PAO1; assay: Inhibition of beta-lactamase activity in Pseudomonas aeruginosa PAO1 36/14-210 (ST-235) assessed as MIC for cefpodoxime antibacterial activity at 4 mg/L by broth microdilution method
# [44] = system: Pseudomonas aeruginosa PAO1; assay: Inhibition beta lactamase PDC-1 in Pseudomonas aeruginosa PAO1 assessed as inactivation efficiency by measuring acylation rate (k2/K) using nitrocefin as substrate measured by 96 well microtitre plate
compound,measurement,setting,value
C[C@]1(COC(=O)Cc2ccc(O)c(O)c2)[C@H](C(=O)O)N2C(=O)/C(=C/c3cc(Br)ccn3)[C@H]2S1(=O)=O,IC50,[1],0.0009 µM
same,MIC,[2],2 µg/mL
same,MIC,[3],0.5 µg/mL
same,Ki,[4],14 nM
same,MIC,[5],1 µg/mL
same,MIC,[6],1 µg/mL
same,MIC,[7],1 µg/mL
same,K,[8],20.9 10^5/M/s
same,MIC,[9],1 µg/mL
same,MIC,[10],8 µg/mL
same,MIC,[11],0.5 µg/mL
same,MIC,[12],4 µg/mL
same,MIC,[13],1 µg/mL
same,MIC,[14],1 µg/mL
same,MIC,[15],1 µg/mL
same,MIC,[16],4 µg/mL
same,MIC,[17],2 µg/mL
same,K,[18],7 10^-2/min
same,inhibition,[19],inactive
same,MIC,[20],1 µg/mL
same,Kinact,[21],0.032 s⁻¹
same,MIC,[22],1 µg/mL
same,MIC,[23],2 µg/mL
same,MIC,[24],1 µg/mL
same,MIC,[25],1 µg/mL
same,MIC,[26],1 µg/mL
same,MIC,[27],2 µg/mL
same,MIC,[28],2 µg/mL
same,inhibition,Pseudomonas aeruginosa,inactive
same,MIC,[29],8 µg/mL
same,MIC,[30],8 µg/mL
same,MIC,[31],1 µg/mL
same,MIC,[32],2 µg/mL
same,MIC,[33],8 µg/mL
same,MIC,[34],1 µg/mL
same,MIC,[35],2 µg/mL
same,MIC,[36],4 µg/mL
same,MIC,[37],1 µg/mL
same,MIC,[38],1 µg/mL
same,MIC,[39],4 µg/mL
same,MIC,[40],0.5 µg/mL
same,T1/2,[41],1.75 h
same,MIC,[42],1 µg/mL
same,MIC,[43],16 µg/mL
same,k2/K inactivation efficiency,[44],6.2 M⁻¹ s⁻¹
O=C(O)[C@H]1/C(=C/CO)O[C@@H]2CC(=O)N21 [CLAVULANIC ACID],IC50,[1],> 200 µM
CC1(C)[C@H](C(=O)O)N2C(=O)C[C@H]2S1(=O)=O [SULBACTAM],IC50,[1],4.37 µM
